Patent US20220033784A1 (priority 2020, published 2022)
Like-named read-outs stand apart in the source and are kept apart here.

T1: human intermediate-affinity IL-2 receptor complex, IL-2 CD122/CD132 (β/γ), on cells (human, UniProt P14784 27-551; P31785 23-369)
T1 sequence (looked up) 1: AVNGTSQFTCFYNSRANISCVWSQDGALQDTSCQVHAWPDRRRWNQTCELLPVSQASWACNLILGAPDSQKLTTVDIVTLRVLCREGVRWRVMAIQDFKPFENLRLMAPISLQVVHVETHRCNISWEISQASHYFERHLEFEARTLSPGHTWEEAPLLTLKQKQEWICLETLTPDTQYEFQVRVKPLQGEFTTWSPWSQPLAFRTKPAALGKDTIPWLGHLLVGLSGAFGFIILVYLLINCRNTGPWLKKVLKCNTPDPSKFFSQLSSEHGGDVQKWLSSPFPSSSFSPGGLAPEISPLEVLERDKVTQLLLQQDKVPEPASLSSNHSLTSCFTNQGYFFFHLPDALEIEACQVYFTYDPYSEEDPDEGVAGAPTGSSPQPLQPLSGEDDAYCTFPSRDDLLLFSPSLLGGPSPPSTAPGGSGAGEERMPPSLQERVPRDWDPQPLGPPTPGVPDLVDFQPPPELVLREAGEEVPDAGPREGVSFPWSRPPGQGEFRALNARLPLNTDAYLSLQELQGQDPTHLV
T1 sequence (looked up) 2: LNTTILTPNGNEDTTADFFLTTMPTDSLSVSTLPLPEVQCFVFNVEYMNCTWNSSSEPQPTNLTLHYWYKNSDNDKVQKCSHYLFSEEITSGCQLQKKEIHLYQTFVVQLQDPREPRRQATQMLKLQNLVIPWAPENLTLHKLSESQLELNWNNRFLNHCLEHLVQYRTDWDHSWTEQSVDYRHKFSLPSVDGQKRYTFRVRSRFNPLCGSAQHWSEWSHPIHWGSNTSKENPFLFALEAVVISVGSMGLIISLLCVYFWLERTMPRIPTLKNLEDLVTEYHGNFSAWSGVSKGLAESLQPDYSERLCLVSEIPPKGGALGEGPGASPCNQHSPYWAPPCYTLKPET

T2: human high-affinity IL-2 receptor complex, IL-2 CD25/CD122/CD132 (α/β/γ), on cells (human, UniProt P01589 22-272; P14784 27-551; P31785 23-369)
T2 sequence (looked up) 1: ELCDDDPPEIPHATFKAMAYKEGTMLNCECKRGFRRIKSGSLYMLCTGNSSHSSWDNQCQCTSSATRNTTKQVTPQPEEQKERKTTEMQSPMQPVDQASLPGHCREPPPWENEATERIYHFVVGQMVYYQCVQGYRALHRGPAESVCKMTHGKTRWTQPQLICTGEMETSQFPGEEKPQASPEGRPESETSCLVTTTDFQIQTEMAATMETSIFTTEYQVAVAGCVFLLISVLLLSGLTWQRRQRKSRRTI
T2 sequence (looked up) 2: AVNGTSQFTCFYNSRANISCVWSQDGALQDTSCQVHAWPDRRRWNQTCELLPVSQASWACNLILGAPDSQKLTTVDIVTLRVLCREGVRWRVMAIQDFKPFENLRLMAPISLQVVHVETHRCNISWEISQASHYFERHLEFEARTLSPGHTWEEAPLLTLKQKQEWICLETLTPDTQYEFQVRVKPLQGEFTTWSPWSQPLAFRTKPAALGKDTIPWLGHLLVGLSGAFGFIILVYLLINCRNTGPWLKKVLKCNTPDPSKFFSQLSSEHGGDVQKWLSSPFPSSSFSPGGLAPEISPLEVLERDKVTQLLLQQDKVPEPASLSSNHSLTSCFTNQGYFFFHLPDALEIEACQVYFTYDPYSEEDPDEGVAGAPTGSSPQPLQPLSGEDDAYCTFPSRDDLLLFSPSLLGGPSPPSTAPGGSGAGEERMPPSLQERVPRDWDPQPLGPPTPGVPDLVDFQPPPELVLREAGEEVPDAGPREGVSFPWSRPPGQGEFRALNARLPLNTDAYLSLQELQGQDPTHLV
T2 sequence (looked up) 3: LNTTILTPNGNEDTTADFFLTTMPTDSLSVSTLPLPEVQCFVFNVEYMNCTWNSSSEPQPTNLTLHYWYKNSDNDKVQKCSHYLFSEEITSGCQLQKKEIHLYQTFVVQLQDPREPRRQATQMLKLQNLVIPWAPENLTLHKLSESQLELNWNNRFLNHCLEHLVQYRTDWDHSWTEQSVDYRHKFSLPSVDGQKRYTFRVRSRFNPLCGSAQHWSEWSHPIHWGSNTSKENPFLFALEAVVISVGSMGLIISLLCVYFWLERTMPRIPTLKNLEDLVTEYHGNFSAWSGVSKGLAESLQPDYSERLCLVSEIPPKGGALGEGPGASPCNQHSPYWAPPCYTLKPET

T3: human IL-2 receptor beta (IL-2Rβ, CD122), purified soluble (human, UniProt P14784 27-240)
T3 construct: also called hILR2β (CD122); human IL-2Rβ
T3 sequence (looked up): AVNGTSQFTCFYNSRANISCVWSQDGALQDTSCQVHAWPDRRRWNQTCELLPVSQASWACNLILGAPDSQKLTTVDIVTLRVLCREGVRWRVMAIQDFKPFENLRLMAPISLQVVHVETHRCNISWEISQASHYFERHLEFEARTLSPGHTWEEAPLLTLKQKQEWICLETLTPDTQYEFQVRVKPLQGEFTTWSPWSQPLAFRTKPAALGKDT


Experiments:
[1] = tested on: HH cells (IL-2 CD122/CD132 (β/γ) receptor complex); assay: pSTAT5 ELISA in HH cells; type: cell-based; settings: for Selectivity HH/iTreg: higher value = greater selectivity for HH cells; for EC50: pSTAT5 level 50% of maximum, InstantOne ELISA, read-out: EC50 HH T cell
Protocol: (§1) The ability of the IL-2 variants to activate HH cells and iTregs was measured by monitoring relative changes in phosphorylated STAT5 (pSTAT5) in response to treatment of the cells with the IL-2 variants. pSTAT5 is known to be a downstream consequence of IL-2 signaling. HH T cells (ATCC CRL-2105) are a line of T cells that lack the alpha chain of the IL-2 receptor complex, but that contain the beta and gamma chains of the IL-2 receptor complex. iTreg cells were prepared from Fresh Leuko Paks obtained from […] Technologies (CAT #70500.1, Donor #D001003551).
(§2) For IL-2 activation, the HH cells and iTreg cells were plated at 2*10e6 cells/well in 50 ul serum-free RPMI 1640 media (Gibco), and allowed to rest at 37° C. After resting, cells were treated the IL-2 molecules listed above, and cells were then pelleted by centrifugation.
(§3) Following treatment with the IL-2 molecules, cell induction status was evaluated by the InstantOne ELISA pSTAT5 detection kit (Invitrogen).

[2] = tested on: iTreg cells (IL-2 CD25/CD122/CD132 (α/β/γ) receptor complex); assay: pSTAT5 ELISA in iTreg cells; type: cell-based; settings: pSTAT5 level 50% of maximum, InstantOne ELISA; read-out: EC50 iTreg cell
Protocol: as §1, §2, §3

CD8 T cells = assay: pSTAT5 flow cytometry in hPBMCs: CD8 T cells; type: cell-based, human; settings: for Selectivity CD8/Treg: larger numbers = greater selectivity for CD8 T cells over Treg cells; for EC50: pSTAT5 MFI in hPBMCs, 20 minutes at 37° C., read-out: EC50 CD8 T cell
Protocol: (§4) In this experiment, the ability of the IL-2 variants to activate CD8 T cells, NK cells, and Treg cells was measured by monitoring relative changes in pSTAT5 in response to treatment of the cells with the IL-2 variants. The IL-2 variants tested in this experiment were each fused to a human IgG Fc domain as described in Example 15. […]; Blood from healthy volunteers was taken and hPBMCs were isolated using a ficoll-paque (GE Healthcare) gradient, washed with PBS to remove platelets, and cleared of red blood cells using ACK lysis buffer (Gibco). Cells were then plated at 1*10e6 cells/well in 90 uL serum-free RPMI 1640 media (Gibco) and allowed to rest for 2-4 hours at 37° C. After resting, cells were treated the IL-2 molecules listed above (10 uL), at the indicated concentrations for 20 minutes at 37° C., and 25 uL 20% PFA was immediately added with gentle pipetting. Cells were then pelleted by centrifugation and aspirated (400 RCF, 7 minutes).
(§5) Phosflow Perm Buffer III (BD Biosciences) was added (200 uL), and the cells were mixed gently by pipetting up and down once to prevent clumping. Cells were then washed twice with 200 uL FACS buffer followed by pelleting by centrifugation (400 RCF, 7 minutes). Cells were in resuspended in 200 uL FACS buffer and incubated with the antibodies in Table D and Table E per standard procedure then suspended in 200 uL FACS buffer for FACS analysis. Data was analyzed using FlowJo v10 software.

NK cells = assay: pSTAT5 flow cytometry in hPBMCs: NK cells; type: cell-based, human; settings: for Selectivity NK/Treg: larger numbers = greater selectivity for NK cells over Treg cells; for EC50: pSTAT5 MFI in hPBMCs, 20 minutes at 37° C., read-out: EC50 NK cell
Protocol: as §4, §5

Treg cells = assay: pSTAT5 flow cytometry in hPBMCs: Treg cells; type: cell-based, human; settings: pSTAT5 MFI in hPBMCs, 20 minutes at 37° C.; read-out: EC50 Treg cell
Protocol: as §4, §5

[3] = target: T1, human intermediate-affinity IL-2 …; assay: cell-based or functional assay
[4] = target: T2, human high-affinity IL-2 receptor …; assay: cell-based or functional assay
[5] = target: T1, human intermediate-affinity IL-2 …; assay: cell-based or functional assay; remark: listed apart in the source
[6] = target: T2, human high-affinity IL-2 receptor …; assay: cell-based or functional assay; remark: listed apart in the source
[7] = target: T1, human intermediate-affinity IL-2 …; assay: cell-based or functional assay; remark: listed apart in the source
[8] = target: T3, human IL-2 receptor beta (IL-2Rβ, …); assay: SPR (Biacore 8K, 25 C), CD122 amine-coupled on CM5 chip, Fc-IL2 variant as analyte, 1:1 Langmuir fit

Molecule	Selectivity HH/iTreg [1]	EC50 [1] [nM]	EC50 [2] [nM]	Selectivity CD8/Treg (CD8 T cells)	EC50 (CD8 T cells) [nM]	Selectivity NK/Treg (NK cells)	EC50 (NK cells) [nM]	EC50 (Treg cells) [nM]	further results
Fc-IL2-E62N:K64T	3.84 × 10^−4	52.1	0.02	0.09	25.5	0.62	3.65	2.26	
Fc-IL2-L72N:Q74T	8.4 × 10^−4	47.6	0.04	0.1	22.1	0.98	2.33	2.29	
Fc-IL2-K35N				0.00284	24.6	0.0276	2.54	0.07	
Fc-IL2-T41N:K43T	2.69 × 10^−4	37.2	0.01	0.07	31.2	0.7	3.05	2.13	
Fc-IL2-R38N:L40T	6.75 × 10^−4	163	0.11	0.3	26.5	2.58	3.06	7.89	
Fc-IL2-K43N:Y45T-E62N:K64T (protein) APTSSSTKKTQLQLEHLLLDLQMILNGINNYKNPKLTRMLTFNFTMPKKATELKHLQCLEENLTPLEEVLNLAQSKNFHLRPRDLISNINVIVLELKGSETTFMCEYADETATIVEFLNRWITFCQSIISTLT	4.64 × 10^−2	66.2	3.07						relative selectivity for HH cells vs iTreg cells among the tested molecules ([1]; Table C): greatest relative selectivity
Fc-IL2-R38N:L40T-K43N:Y45T (Fc fusion) GGGGSGGGGSAPTSSSTKKTQLQLEHLLLDLQMILNGINNYKNPKLTNMTTFNFTMPKKATELKHLQCLEEELKPLEEVLNLAQSKNFHLRPRDLISNINVIVLELKGSETTFMCEYADETATIVEFLNRWITFCQSIISTLT									EC50, pSTAT5 induction in HH T cells (ELISA) [3]: 218 nM; EC50, pSTAT5 induction in iTreg cells (ELISA) [4]: 14.1 nM; EC50 (read off the curve), pSTAT5 MFI in NK cells of hPBMC [5]: ~8 nM; EC50 (read off the curve), pSTAT5 MFI in Treg cells of hPBMC [6]: ~20 nM; EC50 (read off the curve), pSTAT5 MFI in NK cells of hPBMC [7]: ~8 nM; Kd [8]: 3540 nM; koff [8]: 0.292 s⁻¹; kon [8]: 82600 M⁻¹ s⁻¹
Fc-IL2-K43N:Y45T-E62N:K64T (Fc fusion) GGGGSGGGGSAPTSSSTKKTQLQLEHLLLDLQMILNGINNYKNPKLTRMLTFNFTMPKKATELKHLQCLEENLTPLEEVLNLAQSKNFHLRPRDLISNINVIVLELKGSETTFMCEYADETATIVEFLNRWITFCQSIISTLT									EC50, pSTAT5 induction in HH T cells (ELISA) [3]: 66.2 nM; EC50, pSTAT5 induction in iTreg cells (ELISA) [4]: 3.07 nM; EC50 (read off the curve), pSTAT5 MFI in NK cells of hPBMC [7]: ~6 nM
Fc-IL2-K43N:Y45T-L72N:Q74T (Fc fusion) GGGGSGGGGSAPTSSSTKKTQLQLEHLLLDLQMILNGINNYKNPKLTRMLTFNFTMPKKATELKHLQCLEEELKPLEEVLNNATSKNFHLRPRDLISNINVIVLELKGSETTFMCEYADETATIVEFLNRWITFCQSIISTLT									EC50, pSTAT5 induction in HH T cells (ELISA) [3]: 65.2 nM; EC50, pSTAT5 induction in iTreg cells (ELISA) [4]: 4.49 nM; EC50 (read off the curve), pSTAT5 MFI in NK cells of hPBMC [7]: ~6 nM; Kd [8]: 2620 nM; koff [8]: 0.235 s⁻¹; kon [8]: 89900 M⁻¹ s⁻¹
Fc-IL2-R38N:L40T-E62N:K64T (Fc fusion) GGGGSGGGGSAPTSSSTKKTQLQLEHLLLDLQMILNGINNYKNPKLTNMTTFKFYMPKKATELKHLQCLEENLTPLEEVLNLAQSKNFHLRPRDLISNINVIVLELKGSETTFMCEYADETATIVEFLNRWITFCQSIISTLT									EC50 (read off the curve), pSTAT5 MFI in NK cells of hPBMC [5]: ~6 nM; EC50 (read off the curve), pSTAT5 MFI in Treg cells of hPBMC [6]: ~20 nM
Fc-IL2-R38N:L40T-L72N:Q74T (Fc fusion) GGGGSGGGGSAPTSSSTKKTQLQLEHLLLDLQMILNGINNYKNPKLTNMTTFKFYMPKKATELKHLQCLEEELKPLEEVLNNATSKNFHLRPRDLISNINVIVLELKGSETTFMCEYADETATIVEFLNRWITFCQSIISTLT									EC50 (read off the curve), pSTAT5 MFI in NK cells of hPBMC [5]: ~6 nM; EC50 (read off the curve), pSTAT5 MFI in Treg cells of hPBMC [6]: ~20 nM
